Test results taken from patent US20100316628A1, “AGENTS AND METHODS FOR TREATING RESPIRATORY DISORDERS” (THE GENERAL HOSPITAL CORPORATION, priority 2008, published 2010).
Entries after “also recorded” stand apart in the source; their conditions may differ.

Legend:
clear cells [1] = experiment: In vivo luminal microperfusion of cauda epididymidis; quantification of V-ATPase apical membrane accumulation / microvilli elongation in clear cells; set-up: species or system rat; details: for effect on ANGII-induced V-ATPase apical accumulation and microvilli elongation: 10 min pre-treatment, then ANGII 20 min with agent present, PD123319 1 μM, losartan 1 μM, ODQ 3 μM, L-NAME 100 μM; for extension of V-ATPase-labeled microvilli versus control: mean±SEM
Protocol: (§1) Rats were anesthetized and the cauda epididymidis was luminally perfused in vivo, harvested and fixed in PLP, as described previously (Beaulieu et al., 2005; Pastor-Soler et al., 2003; Wong and Yeung, 1978).
Immunofluorescence labeling was performed on cryostat sections, as described previously (Beaulieu et al., 2005; Pastor-Soler et al., 2003). Primary antibodies, the AGTR2 peptide and secondary antibodies used are listed in supplementary material. Slides were mounted in Vectashield (Vector Labs, Burlingame, Calif.) with or without DAPI. For confocal microscopy, nuclei were stained using TOPRO-3 iodide (Invitrogen, Carlsbad, Calif.). Immunostained sections were examined using a Nikon E800 microscope (Nikon Instruments, Melville, N.Y.). Digital images were acquired with IPLab Spectrum software (Scanalytics, Fairfax, Va.) and imported into Adobe Photoshop. Sections were also examined using a […] confocal microscope (Zeiss Laboratories). Z-series (0.1-μm interval) were imported into Volocity software (Improvision Inc., version 4.1) for 3D reconstruction and final animations were exported as Quicktime movies.
The level of accumulation of V-ATPase in clear cell microvilli was quantified using IPLab software as described previously (Beaulieu et al., 2005; Pastor-Soler et al., 2003). 10 μm sections of microperfused cauda epididymidis were immunostained under identical conditions, and confocal images were acquired using the same parameters. The segmentation procedure of IPLab was used to measure the area of V-ATPase-positive microvilli, which was normalized against the length of apical pole of each cell (Beaulieu et al., 2005; Pastor-Soler et al., 2003). At least three epididymides from different animals were perfused for each condition, and a minimum of 10 cells/tissue were examined for a total of at least 30 cells/condition.

proximal VD = experiment: Detection of proton secretion in cut-open proximal VD with a self-referencing proton-selective electrode; set-up: species or system rat; details: for proton secretion (effect of the added agent): ANGII 1 μM added to the bath, then concanamycin A 1 μM
Protocol: The proximal VD was cut open to expose the apical surface of the epithelium and anchored onto a custom-made chamber. Proton secretion was measured using a self-referencing proton-selective electrode, as described previously (Beaulieu et al., 2005; Breton et al., 1996; Smith et al., 2007).

clear cells [2] = experiment: Immunogold electron microscopy and quantification of V-ATPase gold labeling in clear cells of perfused epididymis; assay type: in vivo, rat; details: luminal ANGII 1 μM vs control
Protocol: as §1
Pieces of PLP-fixed epididymis were embedded at −45° C. using HM20 resin (Electron Microscopy Sciences, Hatfield, Pa.) in a Leica EM AFS, and ultrathin sections were cut, as described previously (Da Silva et al., 2007; Pastor-Soler et al., 2003). Sections were immunostained for the V-ATPase A subunit, followed by goat anti-rabbit IgG coupled to 15 nm gold (Ted Pella, Reading, Calif.). Grids were examined in a JEOL 1011 electron microscope. Images were acquired using an AMT digital imaging system.
The number of V-ATPase associated gold particles on the apical membrane and microvilli was counted for each clear cell (Da Silva et al., 2007; Pastor-Soler et al., 2003). To determine the density of V-ATPase molecules along the apical membrane, the number of gold particles was divided by the length of apical membrane, including microvilli, of each cell. This value is referred to as “gold/μm apical membrane”. To determine the relative density of the V-ATPase at the cell surface, the number of gold particles was normalized for the width of the cell, measured at the base of the microvilli (gold/μm cell width).

O=c1onc2cnc3ccccc3n12 [ODQ]
effect on ANGII-induced V-ATPase apical accumulation and microvilli elongation (clear cells [1]): completely abolished

Cc1cc(Cn2cnc3c2C[C@@H](C(=O)O)N(C(=O)C(c2ccccc2)c2ccccc2)C3)ccc1N(C)C [PD123319]
effect on ANGII-induced V-ATPase apical accumulation and microvilli elongation (clear cells [1]): prevented the stimulatory effect of ANGII; also recorded: inhibited the effect of ANGII at both 0.1 and 1 μM concentrations

C/C=C/[C@H]1O[C@@](O)([C@@H](C)[C@H](O)[C@H](C)[C@H]2OC(=O)/C(OC)=C/C(C)=C/[C@@H](C)[C@@H](O)[C@@H](CC)[C@@H](O)[C@H](C)C/C(C)=C/C=C/[C@@H]2OC)C[C@@H](O[C@H]2C[C@@H](O)[C@H](OC(N)=O)[C@@H](C)O2)[C@@H]1C [concanamycin A]
proton secretion (effect of the added agent) (proximal VD): markedly inhibited; also recorded: marked inhibition
effect of pre-incubation on the proton secretion response to ANGII (proximal VD; pre-incubation of the tissue for 10 min, data not shown): prevented the response to ANGII

angiotensin II (DRVYIHPF; Angiotensin-2; UniProt P01019 25-32, looked up) [ANGII, peptide hormone; agonist of AGTR1 and AGTR2 receptors]
extension of V-ATPase-labeled microvilli versus control (clear cells [1]; ANGII 0.1 μM in luminal perfusate, 20 min): 141±4%
extension of V-ATPase-labeled microvilli versus control (clear cells [1]; ANGII 1 μM in luminal perfusate, 20 min): 153±7%
V-ATPase-labeled microvilli seen by immunogold labeling (clear cells [2]): longer and more numerous V-ATPase-labeled microvilli are detected
density of V-ATPase molecules in microvilli (Gold/μm apical membrane) (clear cells [2]; P<0.0005): significant increase
total number of V-ATPase molecules located at the cell surface (Gold/μm cell width) (clear cells [2]; P<0.0005): further amplified compared to control
proton secretion (effect of the added agent) (proximal VD): sustained increase in proton secretion
increase of concanamycin-sensitive proton secretion compared to control (proximal VD; ANGII 1 μM, measured 30 min after addition, n=7, P<0.05): 68%

CCCCc1nc(Cl)c(CO)n1Cc1ccc(-c2ccccc2-c2nn[nH]n2)cc1 [Losartan]
effect on ANGII-induced V-ATPase apical accumulation and microvilli elongation (clear cells [1]): no inhibitory effect

Nc1nc2c(nc(Sc3ccc(Cl)cc3)n2[C@@H]2O[C@@H]3COP(=O)(O)O[C@H]3[C@H]2O)c(=O)[nH]1 [p-cpt-cGMP]
elongation of V-ATPase-rich microvilli compared to control (clear cells [1]; 1 mM in luminal perfusate, 20 min): significant elongation; also recorded: marked elongation
